# Test results published in ChEMBL document CHEMBL4706760, “Novel Heteroaryl Compounds as Splicing Modulators for Modulating Splicing of mRNA and Uses Thereof for Treating Diseases” (ACS Med Chem Lett, 2021).
# What was measured:
# Format in all cases: subcellular
# [1] = Splicing modulation activity at Exon E7c mRNA in human cell lysates assessed as induction of poison exon inclusion in RNA measured cells pretreated for 24 hrs followed by first 16 hrs of incubation treated with cycloheximide for 8 hrs by qPCR
# [2] = Splicing modulation activity at wild type Exon 12/12b/12c/13 mRNA in human cell lysates assessed as induction of poison exon inclusion in RNA measured cells pretreated for 24 hrs followed by first 16 hrs of incubation treated with cycloheximide for 8 hrs by qPCR
# [3] = Splicing modulation activity at Exon 12c mRNA in human cell lysates assessed as induction of poison exon inclusion in RNA measured cells pretreated for 24 hrs followed by first 16 hrs of incubation treated with cycloheximide for 8 hrs by qPCR
# [4] = Splicing modulation activity at wild type Exon 7/7b/7c/8 mRNA in human cell lysates assessed as induction of poison exon inclusion in RNA measured cells pretreated for 24 hrs followed by first 16 hrs of incubation treated with cycloheximide for 8 hrs by qPCR
# [5] = Splicing modulation activity at Exon E7b mRNA in human cell lysates assessed as induction of poison exon inclusion in RNA measured cells pretreated for 24 hrs followed by first 16 hrs of incubation treated with cycloheximide for 8 hrs by qPCR
Structure (SMILES),EC50 [1] [nM],IC50 [2] [nM],EC50 [3] [nM],IC50 [4] [nM],EC50 [5] [nM]
CNC(=O)/C=C/c1cc(O)c(-c2ccc(N(C)[C@H]3C[C@]4(C)CCC[C@](C)(C3)N4)nn2)cc1F,310,162,126,99.1,41
CN(c1ccc(-c2cc(F)c(-c3ccn(CF)c(=O)c3)cc2O)nn1)[C@H]1C[C@]2(C)CCC[C@](C)(C1)N2,293,94.7,92.9,93.9,88
CNC(=O)c1ccc2cc(-c3ccc(N(C)[C@H]4C[C@]5(C)CCC[C@](C)(C4)N5)nn3)c(O)cc2n1,60.2,54,46.1,27.6,9.3
CN(c1ncc(-c2ccc(-c3cn[nH]c3)cc2O)nn1)[C@@H]1C[C@H]2CC[C@@H](C1)N2,294,–,–,150,39.6
CN(c1ccc(-c2cc(F)c(-c3ccn(C)c(=O)c3)cc2O)nn1)[C@H]1C[C@]2(C)CCC[C@](C)(C1)N2,–,116,238,–,–
CN(c1ccc(-c2cc(F)c(-c3cn[nH]c3)cc2O)nn1)[C@@H]1C[C@H]2CCC[C@@H](C1)N2,162,–,–,46,168
